# In publication PMC8284440, “Toward New Transmission-Blocking Combination Therapies: Pharmacokinetics of 10-Amino-Artemisinins and 11-Aza-Artemisinin and Comparison with Dihydroartemisinin and Artemether” (Antimicrobial Agents and Chemotherapy, 2021):
# Like-named read-outs stand apart in the source and are kept apart here.
# Key:
# Kinetic solubility = format: physicochemical
# Description: For kinetic solubility assays, three solutions with differing pH were prepared. Phosphate-buffered saline (PBS) was prepared by mixing KH2PO4 (0.2 g), K2HPO4 (0.115 g), NaCl (0.8 g), and KCl (0.2 mg) in purified water (100 ml). The pH was measured and adjusted using 0.05 M HCl or 0.05 M NaOH to pH 7.4. The pH 2 solution was prepared by adding HCl (37%, 83 μl) to purified water (50 ml). FaSSIF buffer at pH 6.5 was prepared by adding KH2PO4 (2.042 g) and KCl (3.728 g) to purified water (450 ml) and adjusting the pH to 6.5 using 0.05 M HCl or 0.05 M NaOH as required. Simulated intestinal fluid (SIF) (Biorelevant, London, UK) powder (5.6 mg) was then added to the buffer (25 ml) to complete the process.
# (i) Kinetic solubility. Duplicate stock solutions of each compound at a concentration of 10 mM in DMSO were prepared in a 96-well plate in PBS at pH 7.4, water at pH 2, and FaSSIF buffer at pH 6.5 to a final concentration of 200 μM ([68]). These three solutions mimic the pH and conditions of the gastrointestinal tract. As the FaSSIF buffer mimics the fasted state in vitro, solubility in this buffer provides a guide as to whether compounds should be dosed with or without meals ([87]). Calibration standards were prepared for each compound in DMSO at 11, 100, and 220 μM. These standards were used to produce a calibration curve required for calculation of the concentration of each compound in the test solutions. […] Plates were agitated on a plate shaker for 2 h (500 rpm, 22°C). Sample analysis was carried out by liquid chromatography-tandem mass spectrometry (LC-MS/MS) analysis as described in “Sample analysis” below. Peak areas were integrated, and calibration curves were constructed and used to calculate the concentrations of each compound in the three buffers.
# (§1) Sample extraction. […] The organic layer was then transferred and evaporated under a gentle stream of nitrogen at room temperature for 30 min. The dried samples were reconstituted in mobile phase, and a 5 μl sample was injected for LC-MS/MS analysis. The only exception was the arylurea 10, for which no liquid-liquid extraction was conducted; instead, the 200 μl acetonitrile solution was evaporated under a gentle stream of nitrogen at room temperature. The dried sample was reconstituted in the mobile phase, and a 5 μl sample was injected for LC-MS/MS analysis. The plasma samples for each compound from the in vivo studies were extracted by mixing 350 μl ethyl acetate with 15 μl of plasma sample and 35 μl of universal buffer containing internal standard at pH 8. The samples were vortexed for 1 min and centrifuged for 5 min, and the organic layer was then transferred and evaporated under a gentle stream of nitrogen at room temperature for 30 min. The dried samples were each reconstituted in the mobile phase, and a 5 μl sample was injected for LC-MS/MS analysis.
# (§2) LC-MS/MS analysis. For all the artemisinins except the arylurea 10, gradient chromatography was performed on a Phenomenex (Torrance, CA, USA) Luna PFP(2) analytical column (100 Å, 5 μm, 2 by 50 mm) and an AB Sciex API 5500 mass spectrometer which was operated at unit resolution in the multiple reaction monitoring (MRM) mode. The HPLC method used was a gradient method with 5 mM ammonium acetate and 0.1% acetic acid in water as the aqueous phase and a mixture of acetonitrile and methanol (1:1 vol/vol) containing 5% of the aqueous phase as the organic phase ([89]). The arylurea 10 was analyzed using a Phenomenex Gemini NX-C18 (5 μm, 2.1 mm by 50 mm) column with an AB Sciex 3200 QTRAP mass spectrometer operated at unit resolution in the MRM mode. The HPLC method used was a gradient method with 5 mM ammonium acetate and 0.1% acetic acid in water as the aqueous phase and a mixture of acetonitrile and methanol (1:1 vol/vol). The transitions of the molecular ions were monitored, as listed in Table S8 in the supporting information. The calibration range was between 0.002 μg/ml and 6.250 μg/ml.
# [1] = Metabolic stability in pooled human liver microsomes; design: CLint scaled: dose or concentration left out as unconfirmed; conditions: for half-life at 0.4 mM / CLint scaled: human
# Description: (ii) Metabolic stability in liver microsomes. The metabolic stability assay was performed in duplicate using 96-deepwell plates. Each compound (0.4 mM) was incubated individually in mouse, rat, and pooled human liver microsomes (0.4 mg/ml) at 37°C in the presence and absence of the cofactor NADPH (1 mM). An aliquot was taken at 0, 5, 10, 30, and 60 min, and the reaction was quenched by adding 300 μl of ice-cold acetonitrile containing the internal standard carbamazepine (0.0236 μg/ml) ([88]). The test compounds in the supernatant were analyzed by means of LC-MS/MS as described in “Sample analysis” below. The normalized data for each sample were used to calculate the in vitro half-life, intrinsic clearance rate, and hepatic extraction ratio from the results of this assay using the following equations ([88]).Equation 1. Normalized area. (1) Normalized area=(Peak area of sample at time point/Peak area of internal standard) Equation 2. Percent parent remaining. (2) % Parent=Normalized peak area of sample at time point/Normalized peak area of sample at t=0×100 Equation 3. Calculated t1/2. (3) t1/2=−0.693/λ where λ is the slope of the ln (% parent remaining) versus time curve of the compound.Equation 4. CLint. (4) CLint=[0.693/t1/2(min)]×[Volume of incubation (μl)/Microsomal protein (μg)] Equation 5. Hepatic extraction ratio. (5) EH=fu×CLint/QH + fu×CLint
# as §1
# as §2, with “μg/ml. Data acquisition and evaluation were performed using Analyst 1.6.2 software (Applied Biosystems, Foster City, CA, USA). The formation of the putative metabolite DHA from the amino-artemisinins and the metabolite M1 of artemisone were evaluated in these mice PK studies; the MRM transitions of DHA and M1 (Table S8) were thus included in the LC-MS/MS assays.” for “μg/ml.”
# [2] = FaSSIF buffer, 22 °C, pH 6.5, fassif, kinetic from dmso stock, read-out: Solubility FaSSIF pH 6.5
# [3] = PBS, 22 °C, pH 7.4, aqueous buffer, kinetic from dmso stock, read-out: Solubility pH 7.4
# [4] = pH 2 solution (HCl in water), 22 °C, pH 2, kinetic from dmso stock, read-out: Solubility pH 2
Structure (SMILES),solubility at 2 h (Kinetic solubility; [2]) [µM],solubility at 2 h (Kinetic solubility; [3]) [µM],"solubility at 2 h (Kinetic solubility; pH 2, FaSSIF pH 6.5 and pH 7.4 together, read-out: Solubility in the three aqueous solutions) [µM]",solubility at 2 h (Kinetic solubility; [4]) [µM],Stability in HLM ([1]; human liver microsomes),half-life at 0.4 mM ([1]; pooled liver microsomes) [min],Hepatic extraction ratio EH Human ([1]; human liver microsomes),half-life at 0.4 mM ([1]; microsomes) [min],CLint scaled ([1]; pooled liver microsomes) [mL/min/kg]
"C[C@@H]1CC[C@H]2[C@@H](C)C(=O)N[C@@H]3O[C@@]4(C)CC[C@@H]1[C@]32OO4 [11-Aza-artemisinin 11, 11-aza-artemisinin]",> 150,144,> 144,> 150,stable throughout the experiment,60,,,
"CO[C@H]1O[C@@H]2O[C@@]3(C)CC[C@H]4[C@H](C)CC[C@@H]([C@H]1C)[C@@]24OO3 [Artemether 3, artemether]",,,,,,,0.9,12.5,172
"C[C@H]1[C@H](N2CCSCC2)O[C@@H]2O[C@@]3(C)CC[C@H]4[C@H](C)CC[C@@H]1[C@@]24OO3 [Artemiside 5, artemiside]",< 5,< 5,,12.4,,< 10,1.0,,451
"C[C@H]1[C@H](N2CCS(=O)(=O)CC2)O[C@@H]2O[C@@]3(C)CC[C@H]4[C@H](C)CC[C@@H]1[C@@]24OO3 [Artemisone 6, artemisone]",74.4,120,,73.7,,< 10,0.9,,243
C[C@H]1[C@H](N2CCN(C(=O)Nc3ccc(F)cc3)CC2)O[C@@H]2O[C@@]3(C)CC[C@H]4[C@H](C)CC[C@@H]1[C@@]24OO3 [Arylurea 10],24,27,,10,,< 10,0.6,,531
"C[C@H]1[C@@H](O)O[C@@H]2O[C@@]3(C)CC[C@H]4[C@H](C)CC[C@@H]1[C@@]24OO3 [DHA 2, dihydroartemisinin]",,,,,,51.7,0.7,,41.5
C[C@H]1[C@H](N2C=CS(=O)(=O)CC2)O[C@@H]2O[C@@]3(C)CC[C@H]4[C@H](C)CC[C@@H]1[C@@]24OO3 [M1 12],57.6,74.5,,> 150,,> 150,,,
C[C@H]1[C@H](NS(N)(=O)=O)O[C@@H]2O[C@@]3(C)CC[C@H]4[C@H](C)CC[C@@H]1[C@@]24OO3 [Sulfamide 7],< 5,11.5,,> 150,,> 150,0.2,,5.6
